Source: ChEMBL document CHEMBL5665443, “Enzyme Inhibitor Single Concentration assay results for EUbOPEN Chemogenomics Library” (2024)

Experiments:
Details in all cases: Hit No
[1] = target: Endonuclease 8-like 1 (Homo sapiens) (UniProt Q96FI4);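 also: fluorescence at 594 nm from quenched duplex DNA oligonucleotides released by NEIL1 cleavage and strand separation, reported as reduction of this enzyme activity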
Description: Inhibition of NEIL1 by quantifying inhibition of NEIL1-mediated cleavage and dissociation of quenched duplex DNA oligonucleotides, measured as fluorescence at 594 nm.

[2] = target: T1, Endonuclease III-like protein 1 (Homo sapiens) (UniProt P78549);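 also: enzyme assay tracking NTHL1 cutting and release of a quenched double-stranded DNA oligo substrate, read as fluorescence at 594 nm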
T1 sequence (whole entry): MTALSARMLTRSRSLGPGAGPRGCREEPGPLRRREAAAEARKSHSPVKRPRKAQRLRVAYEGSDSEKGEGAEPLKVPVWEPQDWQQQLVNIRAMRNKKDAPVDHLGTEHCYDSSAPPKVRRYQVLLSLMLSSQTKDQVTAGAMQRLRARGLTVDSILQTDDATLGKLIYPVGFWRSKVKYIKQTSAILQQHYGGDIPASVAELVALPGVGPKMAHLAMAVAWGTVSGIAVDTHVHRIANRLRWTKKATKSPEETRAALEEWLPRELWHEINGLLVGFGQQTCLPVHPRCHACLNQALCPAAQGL
Description: Inhibition of NTHL1 by quantifying inhibition of NTHL1-mediated cleavage and dissociation of quenched duplex DNA oligonucleotides, measured as fluorescence at 594 nm.

[3] = target: N-glycosylase/DNA lyase (Homo sapiens) (UniProt O15527);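 also: OGG1 cleavage of a quenched duplex DNA oligonucleotide, coupled to APE1 for strand incision, read as fluorescence at 594 nm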
Description: Inhibition of OGG1 by quantifying inhibition of OGG1-mediated cleavage and dissociation of quenched duplex DNA oligonucleotides, measured as fluorescence at 594 nm. To generate a functional strand incision and increase turn-over this assay is coupled to APE1.

[4] = target: T2, Single-strand selective monofunctional uracil DNA glycosylase (Homo sapiens) (UniProt Q53HV7);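 also: enzymatic SMUG1 assay coupled with APE1, reading fluorescence at 594 nm released when a quenched double-stranded DNA oligonucleotide substrate is cleaved and separated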
T2 sequence (whole entry): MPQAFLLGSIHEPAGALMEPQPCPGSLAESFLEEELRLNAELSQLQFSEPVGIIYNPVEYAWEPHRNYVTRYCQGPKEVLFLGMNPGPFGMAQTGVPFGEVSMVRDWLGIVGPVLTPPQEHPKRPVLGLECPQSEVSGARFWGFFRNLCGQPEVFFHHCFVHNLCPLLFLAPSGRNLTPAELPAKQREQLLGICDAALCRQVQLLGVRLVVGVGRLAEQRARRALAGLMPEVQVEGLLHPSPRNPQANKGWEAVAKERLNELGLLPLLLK
Description: Inhibition of SMUG1 by quantifying inhibition of SMUG1-mediated cleavage and dissociation of quenched duplex DNA oligonucleotides, measured as fluorescence at 594 nm. To generate a functional strand incision and increase turn-over this assay is coupled to APE1.

[5] = target: G/T mismatch-specific thymine DNA glycosylase (Homo sapiens) (UniProt Q13569);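 also: human TDG cleavage of quenched duplex DNA oligonucleotides coupled to APE1, strand release read as fluorescence at 594 nm, inhibition of TDG activity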
Description: Inhibition of TDG by quantifying inhibition of TDG-mediated cleavage and dissociation of quenched duplex DNA oligonucleotides, measured as fluorescence at 594 nm. To generate a functional strand incision and increase turn-over this assay is coupled to APE1.

[6] = target: Uracil-DNA glycosylase (Homo sapiens) (UniProt P13051);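 also: UNG excision on a quenched double-stranded DNA oligo probe, with APE1 added for strand incision and turnover, read as fluorescence at 594 nm as strands separate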
Description: Inhibition of UNG by quantifying inhibition of UNG-mediated cleavage and dissociation of quenched duplex DNA oligonucleotides, measured as fluorescence at 594 nm. To generate a functional strand incision and increase turn-over this assay is coupled to APE1.

[7] = target: T3, Endonuclease 8-like 2 (Homo sapiens) (UniProt Q969S2);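 also: fluorescence at 594 nm reports NEIL2 cutting and release of a quenched double-stranded DNA oligo substrate, reduced signal read as inhibition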
T3 sequence (whole entry): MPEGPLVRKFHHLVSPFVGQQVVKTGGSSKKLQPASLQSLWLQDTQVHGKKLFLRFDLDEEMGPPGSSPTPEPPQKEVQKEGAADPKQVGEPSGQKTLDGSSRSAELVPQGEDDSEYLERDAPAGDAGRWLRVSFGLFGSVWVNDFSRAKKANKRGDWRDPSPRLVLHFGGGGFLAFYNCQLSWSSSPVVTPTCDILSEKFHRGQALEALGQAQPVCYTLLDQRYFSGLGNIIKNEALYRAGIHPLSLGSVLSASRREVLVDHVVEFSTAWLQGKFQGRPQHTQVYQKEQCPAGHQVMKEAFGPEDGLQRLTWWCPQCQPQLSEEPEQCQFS
Description: Inhibition of NEIL2 by quantifying inhibition of NEIL2-mediated cleavage and dissociation of quenched duplex DNA oligonucleotides, measured as fluorescence at 594 nm.

Sequence of Endonuclease 8-like 1 (Homo sapiens) (Q96FI4 whole entry): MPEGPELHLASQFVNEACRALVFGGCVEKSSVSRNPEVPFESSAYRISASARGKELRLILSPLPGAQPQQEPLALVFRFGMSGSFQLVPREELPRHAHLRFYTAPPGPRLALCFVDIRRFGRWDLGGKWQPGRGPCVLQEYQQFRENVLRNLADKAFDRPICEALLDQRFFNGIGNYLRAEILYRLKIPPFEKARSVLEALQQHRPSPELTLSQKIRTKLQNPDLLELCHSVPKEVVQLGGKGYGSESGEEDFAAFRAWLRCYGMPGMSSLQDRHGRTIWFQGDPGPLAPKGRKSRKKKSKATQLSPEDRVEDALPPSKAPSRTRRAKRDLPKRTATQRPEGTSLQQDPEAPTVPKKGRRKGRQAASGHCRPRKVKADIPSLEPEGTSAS
Sequence of N-glycosylase/DNA lyase (Homo sapiens) (O15527 whole entry): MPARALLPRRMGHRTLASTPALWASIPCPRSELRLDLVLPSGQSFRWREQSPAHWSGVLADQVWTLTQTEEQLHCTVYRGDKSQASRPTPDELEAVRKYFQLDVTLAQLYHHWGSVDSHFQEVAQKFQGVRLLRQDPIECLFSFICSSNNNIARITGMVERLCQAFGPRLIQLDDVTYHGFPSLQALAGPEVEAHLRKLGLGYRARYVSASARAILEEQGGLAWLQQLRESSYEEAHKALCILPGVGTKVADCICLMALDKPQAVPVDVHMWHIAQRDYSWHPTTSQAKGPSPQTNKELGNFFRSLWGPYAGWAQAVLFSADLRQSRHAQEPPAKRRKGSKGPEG
Sequence of G/T mismatch-specific thymine DNA glycosylase (Homo sapiens) (Q13569 whole entry): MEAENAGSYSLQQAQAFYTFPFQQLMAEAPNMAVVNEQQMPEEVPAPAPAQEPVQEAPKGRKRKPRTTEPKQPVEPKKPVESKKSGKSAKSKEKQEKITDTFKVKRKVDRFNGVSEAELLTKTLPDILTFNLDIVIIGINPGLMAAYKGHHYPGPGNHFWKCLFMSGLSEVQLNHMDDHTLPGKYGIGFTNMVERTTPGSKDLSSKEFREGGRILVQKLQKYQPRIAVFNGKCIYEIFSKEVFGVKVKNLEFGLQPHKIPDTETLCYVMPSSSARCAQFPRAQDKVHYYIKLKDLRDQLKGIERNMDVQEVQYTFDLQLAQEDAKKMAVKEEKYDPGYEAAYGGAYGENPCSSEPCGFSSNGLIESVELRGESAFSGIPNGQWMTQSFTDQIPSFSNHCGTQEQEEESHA
Sequence of Uracil-DNA glycosylase (Homo sapiens) (P13051 whole entry): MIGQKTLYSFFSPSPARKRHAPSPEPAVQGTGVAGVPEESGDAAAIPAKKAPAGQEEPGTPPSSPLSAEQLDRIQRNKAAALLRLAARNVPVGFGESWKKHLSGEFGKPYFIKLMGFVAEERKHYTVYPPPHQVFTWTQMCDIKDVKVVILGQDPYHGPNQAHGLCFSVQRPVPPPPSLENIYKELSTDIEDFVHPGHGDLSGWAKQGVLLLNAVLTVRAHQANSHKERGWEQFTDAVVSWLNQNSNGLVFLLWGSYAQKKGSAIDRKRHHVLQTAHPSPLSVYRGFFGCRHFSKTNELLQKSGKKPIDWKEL

Row | Compound | inhibition ([1]; Compound Concentration 10.0 uM) [%] | inhibition ([2]; Compound Concentration 10.0 uM) [%] | inhibition ([3]; Compound Concentration 10.0 uM) [%] | inhibition ([4]; Compound Concentration 10.0 uM) [%] | inhibition ([5]; Compound Concentration 10.0 uM) [%] | inhibition ([6]; Compound Concentration 10.0 uM) [%] | inhibition ([7]; Compound Concentration 10.0 uM) [%] | inhibition ([1]; Compound Concentration 1.0 uM) [%] | inhibition ([7]; Compound Concentration 1.0 uM) [%] | inhibition ([2]; Compound Concentration 1.0 uM) [%] | inhibition ([3]; Compound Concentration 1.0 uM) [%] | inhibition ([4]; Compound Concentration 1.0 uM) [%] | inhibition ([6]; Compound Concentration 1.0 uM) [%] | inhibition ([5]; Compound Concentration 1.0 uM) [%]
1 | COCC(=O)NC/C=C/c1ccc2ncnc(Nc3ccc(Oc4ccc(C)nc4)c(C)c3)c2c1 | -8.05 | 1.48 | 5.64 | 21.7 | 11.2 | 9.27 |  |  |  |  |  |  |  | 
2 | O=C(N[C@H](Cc1ccc(Cl)cc1)C(=O)N1CCC(Cn2cncn2)(C2CCCCC2)CC1)[C@H]1Cc2ccccc2CN1 | 5.49 | -6.04 | 6.85 | 10.8 |  | -1.71 | 0.159 |  |  |  |  |  |  | 
3 | NCCc1cn(S(=O)(=O)c2c(Cl)nc3sccn23)c2ccccc12 | 6.53 | -1.91 | 16.8 | 3.77 |  | -2.77 | -1.62 |  |  |  |  |  |  | 
4 | Cc1c(C(=O)Nc2ccc(N3C[C@@H](C)O[C@@H](C)C3)nc2)cccc1-c1ccc(OC(F)(F)F)cc1 | -5.39 | -3.21 | -6.4 | -0.0333 | -4.8 |  | 7.5 |  |  |  |  |  |  | 
5 | NCCCNCCCCNCCC(=O)NCCCCCNC(=O)[C@H](CC(N)=O)NC(=O)Cc1ccc(O)cc1O | 0.898 | -0.258 | 0.0747 | -7.3 |  | -1.11 | -3.66 |  |  |  |  |  |  | 
6 | Cc1c(C(=O)Nc2cccc(C(F)(F)F)c2)cc(-c2ccccc2)n1CCCN1CCOCC1 | 0.00926 | -7.69 | -6.32 | 6.03 |  | -3.84 |  |  |  |  |  |  |  | 
7 | Cn1cc(C2=C(c3cn(C4CCN(Cc5ccccn5)CC4)c4ccccc34)C(=O)NC2=O)c2ccccc21 |  |  |  |  |  |  |  | -7.52 | -6.23 | 2.88 | -2.56 | 6.08 | -3.81 | 
8 | CC(C)Oc1ccc(-c2nn([C@@H](C)c3oc4ccc(F)cc4c(=O)c3-c3cccc(F)c3)c3ncnc(N)c23)cc1F | -4.09 | 8.46 | 8.77 | 23.6 | 80.6 | 6.08 |  |  |  |  |  |  |  | 
9 | Cc1csc(NC(=O)c2cc(F)cc(Oc3cncnc3)c2)n1 | -4.5 | 4.86 | -8.23 | 3.26 | 5.04 |  | 3.51 |  |  |  |  |  |  | 
10 | C=CCN1C[C@H](C)N([C@H](c2ccc(C(=O)N(CC)CC)cc2)c2cccc(O)c2)C[C@H]1C | -6.58 | 1.92 | -6.71 | 10.6 | 4.87 |  | 6.25 |  |  |  |  |  |  | 
11 | O=C(Nc1ccc(Cl)cc1)Nc1cccc(-c2cccc(N3CCCC3)n2)c1 | 8.84 | -0.275 | -1.14 | -0.712 |  | -9.34 | -4.23 |  |  |  |  |  |  | 
12 | CCCn1c(=O)c2[nH]c(C3CCCC3)nc2n(CCC)c1=O | -2.28 | -3.21 | -9.82 | -9.38 | 6.69 |  | 1.01 |  |  |  |  |  |  | 
13 | c1cc(CN2CCCNCCNCCCNCC2)ccc1CN1CCCNCCNCCCNCC1 |  | 13.7 | -2.11 | 1.47 | 2.03 |  |  |  |  |  |  |  |  | 
14 | C[C@@H](NCCCc1cccc(C(F)(F)F)c1)c1cccc2ccccc12 | 1.28 | -5.41 | -4.37 | 8.59 | -8.6 |  | 13.5 |  |  |  |  |  |  | 
15 | CC[C@@H]1CN(C(=O)NCC(F)(F)F)C[C@@H]1c1cnc2cnc3[nH]ccc3n12 | 4.1 | 2.88 | 0.361 | 20.8 | 36.4 | 1.27 |  |  |  |  |  |  |  | 
16 | Cc1cn2cc(CC(=O)N3CCC4(CC3)CN(Cc3ccc(-n5nccn5)cc3Cl)C4)nc2s1 | -6.88 | 6.32 | -2.88 | -0.227 | -1.26 |  |  |  |  |  |  |  |  | 
17 | Cc1c(-c2cc(-c3ccccc3Cl)no2)cnn1C1CCNCC1 | 5.79 | 12.9 |  | -1.2 | -8.91 | -3.3 | -0.35 |  |  |  |  |  |  | 
18 | Cc1ccc(F)cc1C(=O)Nc1ccc(C(=O)N2Cc3cccn3Cc3ccccc32)c(Cl)c1 | -2.72 | 18.1 | -6.45 | -2.41 | -0.756 |  | -4.48 |  |  |  |  |  |  | 
19 | O=C1COc2nccc(-c3ccccc3F)c2CN1Cc1cc(C(F)(F)F)cc(C(F)(F)F)c1 | 2.76 | 2.66 | -4.66 | -3.96 |  |  | -2.98 |  |  |  |  |  |  | 
20 | CCN1CCC[C@H]1CNC(=O)c1c(OC)ccc(Br)c1OC | -9.25 | -4.67 | -3.96 | -6.28 | -0.58 |  | -5.97 |  |  |  |  |  |  | 
21 | CC(C)CCC[C@@H](C)[C@H]1CC[C@H]2[C@@H]3[C@H](O)C=C4C[C@@H](O)CC[C@]4(C)[C@H]3CC[C@]12C | 8.25 | -1.74 | -2.82 | -3.67 | -0.558 |  | -6.22 |  |  |  |  |  |  | 
22 | FC(F)c1nc2ccccc2n1-c1nc(N2CCOCC2)nc(N2CCOCC2)n1 |  | 7.06 | 3.08 | 27 | 32.9 | -3.48 |  |  |  |  |  |  |  | 
23 | O=C(NCc1ccc(F)cc1)N1CCN2C(=O)OC(c3ccccc3)(c3ccccc3)C2C1 (centres undefined) | -1.09 | -0.275 | 1.66 | 10.1 | 6.86 |  | 9.75 |  |  |  |  |  |  | 
24 | CCN1CCN(c2ccc(Nc3cc(N(C)C(=O)Nc4c(Cl)c(OC)cc(OC)c4Cl)ncn3)cc2)CC1 |  |  |  |  |  |  |  | -0.787 | -7.84 | 1.48 |  | 20.5 | 1.97 | 47.5
25 | CCCCCCCCc1ccc(CCC(N)(CO)CO)cc1 | 4.69 | -6.87 | -9.6 | 1.32 | 26.4 |  | -1.98 |  |  |  |  |  |  | 
26 | CN1C(=O)[C@@H](NC(=O)c2cc3ccccc3[nH]2)N=C(c2ccccc2)c2ccccc21 |  | 22.4 | -4.56 | -0.954 | 4.69 | -5.09 |  |  |  |  |  |  |  | 
